This note sets out measurements from publication PMC12022103 (Scientific Reports, 2025).

Non-standard residues stand in square brackets, D forms with d. Residues, ends and D or L forms follow the SMILES beside them. No end group written: not given here.

For one data set, the system named is E. coli. Description: Cell morphology by phase contrast microscopy. The class given is cell-based, Escherichia coli. To be noted: 10× MIC, 5 min exposure, preliminary. Here is the method: To explore the potential correlation between general membrane destabilization and our FoR data, we conducted a brief preliminary examination of E. coli cell morphology following a pulsed exposure to our top four peptide candidates at 10× MIC. Cells were imaged by using phase contrast microscopy after 5 min of exposure. […] However, additional research using complementary techniques are necessary to conclusively characterize their killing mechanism.

In data set [1] the test system is E. coli ATCC 25922. As to the kind of experiment: Frequency of resistance determination (p0 method). The data set is classed as cell-based, Escherichia coli. To be noted: E. coli ATCC 25922, 40 cultures, 4 × MIC, 24–48 h, colistin as reference, triplicate. From the text: The method was based on the Fluctuation assay (p0 method; Luria and Delbrück) for determination of mutation rate[33],[34], and optimized for selection of mutants in liquid medium. Colistin sulfate (Thermo Scientific, 15575146) served as control in experimentation. Initially, the MIC of colistin and peptides was verified through broth dilution in 96-well plates (as detailed above). In order to account for potential phenotypic heterogeneity among colonies derived from the same frozen stock, multiple colonies of E. coli ATCC 25922 were picked and inoculated in 2 mL MHII broth overnight at 37°C with continuous shaking. The following day, aliquots of colistin and peptide solutions were prepared in MHII broth at working concentrations 20 times the MIC. […] The plates were incubated at 37 °C in a humidified box, and OD was measured at 600 nm using a microplate reader (Victor Nivo, Perkin-Elmer) after 0, 24 and 48 h of incubation. […]
To calculate the viable bacterial counts, the overnight culture was serially diluted 10-fold in MHII, after which 5 µl of the 10^− 3 – 10^− 9 dilutions were spotted onto MHII agar plates and incubated overnight at 37 °C. CFUs were counted the following day to determine CFU/mL of the overnight culture. […] The mutation rate, or frequency of resistance, was calculated using the following formula: […]

In another data set the test system is S. aureus ATCC 29213. As to the kind of experiment: Minimum inhibitory concentration (MIC), broth dilution. The data set is classed as cell-based. To be noted: D-form versus all-L parent. The protocol: (§1) The panel of bacterial reference strains used in this work for assessment of synthetic peptide activity originated from the American Type Culture Collection (ATCC) and was obtained from the Diagnostic section at the Department of Microbiology, Oslo University Hospital. The strains used were as follows: E. coli ATCC 25922, K. pneumoniae ATCC 13883, A. baumannii ATCC 17978, S. aureus ATCC 29213, and E. faecalis ATCC 29212.
(§2) Bacterial strains were plated on cation-adjusted Mueller-Hinton (MH II) agar plates and incubated at 37 °C overnight. The day after single colonies were picked and resuspended in sterile-filtered saline (0.9%). The OD of each bacterial suspension was adjusted to McFarland standard 0.5 using a spectrophotometer (UV-1800, Shimadzu), and the suspension further diluted 1:100 in MH II broth, corresponding to 10^6 colony forming units (CFU) per mL. The inoculum suspension was used for MIC, MBC, time-kill and protease stability assessments as described below. To ensure correct inoculum sizes, 10 µL of the bacterial suspensions were diluted 2000-fold in sterile-filtered saline (0.9%) and 100 µL plated onto MH II agar plates. After overnight incubation at 37 °C, colonies were counted. If found to be outside the acceptable number (20–80 colonies per plate corresponding to ∼10^6 CFU/mL), results from further analyses were discarded.
(§3) The peptides were serially diluted (two-fold) directly in 96-well plates (Greiner, MICROPLATE, 96 WELL, PP, U-BOTTOM, NATURAL, 650261) containing MH II broth, corresponding to concentrations in the range 256–0.5 µM. An equal volume of bacterial suspension was added to each well, resulting in a final inoculum of 5 × 10^5 CFU/mL and final peptide concentrations of 128–0.25 µM. The 96-well plates were incubated for 18–24 h at 37 °C, after which the OD of each well was measured at 600 nm in a plate reader (Victor Nivo, Perkin-Elmer). The minimum inhibitory concentration (MIC) was estimated as the lowest concentration of peptide that produced OD600 measurements similar to the control wells containing no bacteria. The experiments were performed in triplicate. Two-fold variations in MIC values were often observed between replicates.
A general note: Dilution methods test growth across graded concentrations, often in twofold steps.

A further data set deals with E. faecalis ATCC 29212. The data set is described as above. The data set is classed as cell-based. To be noted: D-form versus all-L parent. Here is the method:
as §1, §2, §3

The next data set concerns K. pneumoniae ATCC 13883. The data set is described as above. The data set is classed as cell-based. To be noted: D-form versus all-L parent. Here is the method: as §1, §2, §3
Data set [2] deals with E. coli ATCC 25922. The description is as above. The class given is cell-based, Escherichia coli. To be noted: D-form versus all-L parent. The protocol:
as §1, §2, §3

For data set [3], the system named is E. coli ATCC 25922. As to the kind of experiment: Time-kill experiments. The class given is cell-based, Escherichia coli. To be noted: E. coli ATCC 25922, at the MBC; detection limit 100 CFU/mL; triplicate. Here is the method: as §2
Four Eppendorf tubes were set up containing 0.5 mL of E. coli inoculum, prepared as described above. To the tubes were added peptides corresponding to final concentrations of ½×MIC, MIC and 2×MIC (see Fig. 3). One tube served as growth control (no added peptide). Then, 50 µL of culture were sampled from the tubes at timepoints 0, 0.25, 0.5, 2, 5 and 24 h. […] The day after, CFU/mL was calculated based on colony counts and dilution factor. […]

A short description of a further data set: Solubility of peptides. The class given is physicochemical. To be noted: solvent as stated in the value.

As to `CC[C@@H](C)[C@@H](NC(=O)[C@@H](CC(C)C)NC(=O)[C@@H](CCC(N)=O)NC(=O)[C@@H](CC(C)C)NC(=O)[C@H](NC(=O)[C@@H](C)NC(=O)[C@@H](CCCCN)NC(=O)[C@@H](CCCCN)NC(=O)[C@@H](CCCCN)NC(=O)[C@@H](CCCCN)NC(=O)[C@@H](CCCCN)NC(=O)[C@H](N)C(C)C)C(C)C)C(=O)N[C@H](CC(C)C)C(=O)N[C@H](CCCCN)C(=O)N[C@H](Cc1ccccc1)C(N)=O` [D-1a-N10] (H-[dV][dK][dK][dK][dK][dK][dA][dV][dL][dQ][dL][dI][dL][dK][dF]-NH2; N-terminus assumed), the “Membrane morphology of cells (in words)” value in the data set with E. coli is listed as “indications of changes in membrane morphology”. The “Frequency of resistance (FoR) (in words)” value in the data set on E. coli ATCC 25922 [1] is “eliminated mutagenicity”. Besides, in the data set with S. aureus ATCC 29213, the “Fold lowering of MIC compared to parent 1a-N10, S. aureus” value is listed as 8 fold. Besides, in the data set with E. faecalis ATCC 29212, the “Fold lowering of MIC compared to parent 1a-N10, E. faecalis” value turned out to be 4 fold. The “Fold improvement (lowering) of MIC compared to parent 1a-N10, K. pneumoniae” value in the data set on K. pneumoniae ATCC 13883 is 2 fold. The “Fold improvement (lowering) of MIC compared to parent 1a-N10, E. coli” value in the data set with E. coli ATCC 25922 [2] turned out to be 2 fold.
With VKKKKKAVLQLILKF-NH2 [1a-N10], in the data set on E. coli, the “Membrane morphology of cells (in words)” value was “no explicit membrane defects”. Besides, in the data set with E. coli ATCC 25922 [3], the “Time after which CFU/ml was below the detection limit” value was 0.5 h. In the data set on E. coli ATCC 25922 [1], the “Frequency of resistance (FoR) (in words)” value is “low resistance frequencies”. Besides, the “Solubility (in words)” value in “Solubility of peptides” is recorded as “soluble in PBS alone”.
